Laboratory results from patent publication EP0537092A1, “Infracellular vesicular vectors and their application in cosmetic and medical compositions and culture media” (priority 1991, dated 1993).
Read-outs that look alike come from different tables or passages of the source.

Experiments:
Type in all cases: cell-based, humaine
fibroblastes [1] = test: summary conclusion on modulation of fibroblast activity (Tableau 10); conditions: Temps : 48 h
Text: Le tableau 10 ci-après résume les résultats obtenus. TABLEAU 10
Ce tableau montre bien la capacité qu'ont les vecteurs selon l'invention à moduler l'activité des fibroblastes lorsqu'ils portent à leur surface certaines fonctions hydrophiles fixées sur ledit vecteur par un ester ou une amide d'acide gras.

[2] = system: collagénase interstitielle (MMP-1); test: collagenase activity in the culture medium of fibroblasts; conditions: for Collagénase: Temps : 48 h, factor of change (summary table)
Method: (§1) Les résultats des essais présentés ci-après ont été obtenus selon la méthodologie suivante : Conditions de culture : les fibroblastes sont obtenus à partir d'explants de peau humaine. Les cellules sont maintenues en culture dans du milieu DMEM (Gibco) additionné de 10 % de sérum de veau foetal (Gibco) et d'antibiotiques (pénicilline 100 U/ml, streptomycine 100 µg/ml).
(§2) Les subcultures sont réalisées par trypsination (Trypsin-EDTA, Gibco). Les cellules sont utilisées du 2e au 10e passage.
(§3) Conditions de traitements : Les cultures de fibroblastes témoins se réferent aux cultures avec vecteurs sans principe actif, en quantité similaire aux autres traitements. Les cultures traitées avec la molécule en solution se réfèrent aux conditions de la culture témoin et de la molécule sous forme soluble.
(§4) Les cultures traitées avec la forme vectoriale de la molécule impliquent que la molécule active soit inclue préalablement dans les vecteurs.
Mesure de l'activité collagénasique dans le milieu de culture
On mesure la collagénase interstitielle qui dégrade les collagènes interstitiels natifs de type I-III. • a) Préparation du substrat : le collagène de type I, marqué au carbone-14, en solution dans CH3COOH 0,1 M est neutralisé à pH 7,4 par du Tris 1 M et dilué avec le tampon NaCl 0,15 M/CaCl2, 4 mM/Tris-HCl 50 mM, pH 7,4 contenant du NEM 0,5 mM et du PMSF 0,1mM à raison de […] substrat (= 10000 cpm/essai). • b) Dosage de la collagénase: 100 µl de milieu sont activés par 10 µl de trypsine (1 mg/ml) à 37°C pendant 10 mn, suivi de l'addition de 10 µl de SBTI (5 mg/ml): 10 mn à température ambiante. 100 µl de milieu sont aussi testés sans activation par la trypsine (mesure de la forme active de l'enzyme).
Le substrat (10000 cpm/essai) est ajouté, éventuellement en présence d'EDTA 25 mM, le volume final étant de 250 µl. La réaction se déroule pendant 18 h à 25°C puis est stoppée par addition de 20 µl d'EDTA 250 mM (10 mn à température ambiante).Le mélange est ensuite chauffé 10 mn à 39°C.
Le collagène non dégradé est précipité par l'éthanol à la concentration finale de 18 % (30 mn à température ambiante).
Finalement, le mélange est centrifugé à 6000 g pendant 30 mn à 4°C. Des aliquots de 200 µl des surnageants sont mélangés avec 5 ml de liquide scintillant aqueux puis comptés pour leur radioactivité.
Une unité de collagénase est définie comme la quantité d'enzyme nécessaire pour dégrader 1 µg de collagène natif par heure à 25°C.

collagène de type III = test: radioimmunoassay of soluble collagen type III in fibroblast culture supernatant
Method: as §1, §2, §3, §4
(§5) Evaluation des collagènes solubles par dosage radioimmunologique : On prélève 100 µl de surnageant de culture et on y ajoute 100 µl d'anticorps anticollagène de type I ou anti-collagène de type III et 200 µl de PBS.

fibroblastes [3] = conditions: for prolifération des fibroblastes traités avec le Palmitate d'hydroxyproline: 10^4 cellules par puit
Method: as §1, §2, §3, §4
[…] Puis on ajoute le sel de tétrazolium jaune (5 mg / ml). Il est réduit par les réductases mitochondriales des cellules vivantes en un produit formazan violet qui est ensuite solubilisé par de l'HCl 0,04 N dans de l'isopropanol.
La réaction colorée est lue à une longueur d'onde de 570 nm par un Multiskan Titertek (Flow Laboratories) et exprimée en densité optique.

collagène de type I = system: collagène de type I
Method: as §1, §2, §3, §4, §5

Compound: O=C(O)[C@@H]1C[C@@H](O)CN1 [Hydroxyproline libre, Hydroxyproline]
- CONCLUSION à 4.10⁵cell. (fibroblastes [1]; 10 µg/ml): Stimulant sélectif du collagène I
- Collagénase ([2]; 10 µg/ml): =
- fold induction at 10 µg/mL (collagène de type III; Skin fibroblast, Temps : 48 h, 10 µg/ml, factor of change (summary table), read-out: Synthèse collag. III): 2
- Cytotoxicité Test MTT (fibroblastes [3]; Temps : 48 h, 10 µg/ml): non
- Prolifération (fibroblastes [3]; Temps : 48 h, 10 µg/ml, factor of change (summary table)): =

Compound: CCCCCCCCCCCCCCCC(=O)OC[C@H](O)[C@H]1OC(=O)C(O)=C1O [palmitate d'ascorbyle en solution, palmitate d'ascorbyle]
- CONCLUSION à 4.10⁵cell. (fibroblastes [1]; 25 µg/ml): Stimulants non sélectifs
- Collagénase ([2]; 25 µg/ml): =
- fold induction at 25 µg/mL (collagène de type III; Skin fibroblast, Temps : 48 h, 25 µg/ml, factor of change (summary table), read-out: Synthèse collag. III): 30
- Cytotoxicité Test MTT (fibroblastes [3]; Temps : 48 h, 25 µg/ml): non

Compound: Palmitate d'hydroxyproline [Palmitate d'hydroxyproline Solution]
- CONCLUSION à 4.10⁵cell. (fibroblastes [1]; 40 µg/ml): inhibit. des collagènes.
- synthèse de collagène type I par des fibroblastes traités avec le palmitate d'hydroxyproline (collagène de type I; 24 heures, 1 µg/ml): 268 ± 18 ng/mL
- synthèse de collagène type I par des fibroblastes traités avec le palmitate d'hydroxyproline (collagène de type I; 24 heures, 5 µg/ml): 232 ± 10 ng/mL
- synthèse de collagène type I par des fibroblastes traités avec le palmitate d'hydroxyproline (collagène de type I; 48 heures, 1 µg/ml): 519 ± 37 ng/mL
- synthèse de collagène type I par des fibroblastes traités avec le palmitate d'hydroxyproline (collagène de type I; 72 heures, 1 µg/ml): 513 ± 77 ng/mL
- synthèse de collagène type I par des fibroblastes traités avec le palmitate d'hydroxyproline (collagène de type I; 72 heures, 5 µg/ml): 470 ± 5 ng/mL
- Collagénase ([2]; 40 µg/ml): =
- dose qui stimule de manière significative la synthèse de la collagénase ([2]; cultures de fibroblastes): 1 µg/mL
- synthèse de collagène type III par des fibroblastes traités avec le palmitate d'hydroxyproline (collagène de type III; 24 heures, 1 µg/ml): 295 ± 24 ng/mL
- synthèse de collagène type III par des fibroblastes traités avec le palmitate d'hydroxyproline (collagène de type III; 24 heures, 5 µg/ml): 281 ± 16 ng/mL
- synthèse de collagène type III par des fibroblastes traités avec le palmitate d'hydroxyproline (collagène de type III; 48 heures, 1 µg/ml): 588 ± 69 ng/mL
- synthèse de collagène type III par des fibroblastes traités avec le palmitate d'hydroxyproline (collagène de type III; 48 heures, 5 µg/ml): 519 ± 20 ng/mL
- synthèse de collagène type III par des fibroblastes traités avec le palmitate d'hydroxyproline (collagène de type III; 72 heures, 1 µg/ml): 628 ± 161 ng/mL
- synthèse de collagène type III par des fibroblastes traités avec le palmitate d'hydroxyproline (collagène de type III; 72 heures, 5 µg/ml): 548 ± 24 ng/mL
- prolifération des fibroblastes traités avec le Palmitate d'hydroxyproline (fibroblastes [3]; 24 heures, 1 µg / ml): 0,493 ± 0,029 densité optique
- prolifération des fibroblastes traités avec le Palmitate d'hydroxyproline (fibroblastes [3]; 24 heures, 5 µg / ml): 0,492 ± 0,016 densité optique
- prolifération des fibroblastes traités avec le Palmitate d'hydroxyproline (fibroblastes [3]; 24 heures, 10 µg / ml): 0,502 ± 0,019 densité optique
- prolifération des fibroblastes traités avec le Palmitate d'hydroxyproline (fibroblastes [3]; 24 heures, 20 µg / ml): 0,457 ± 0,022 densité optique
- prolifération des fibroblastes traités avec le Palmitate d'hydroxyproline (fibroblastes [3]; 48 heures, 1 µg / ml): 0,494 ± 0,012 densité optique
- prolifération des fibroblastes traités avec le Palmitate d'hydroxyproline (fibroblastes [3]; 48 heures, 5 µg / ml): 0,513 ± 0,025 densité optique
- prolifération des fibroblastes traités avec le Palmitate d'hydroxyproline (fibroblastes [3]; 48 heures, 10 µg / ml): 0,511 ± 0,020 densité optique
- prolifération des fibroblastes traités avec le Palmitate d'hydroxyproline (fibroblastes [3]; 48 heures, 20 µg / ml): 0,471 ± 0,028 densité optique
- prolifération des fibroblastes traités avec le Palmitate d'hydroxyproline (fibroblastes [3]; 72 heures, 1 µg / ml): 0,490 ± 0,019 densité optique
- prolifération des fibroblastes traités avec le Palmitate d'hydroxyproline (fibroblastes [3]; 72 heures, 5 µg / ml): 0,500 ± 0,028 densité optique
- prolifération des fibroblastes traités avec le Palmitate d'hydroxyproline (fibroblastes [3]; 72 heures, 10 µg / ml): 0,496 ± 0,017 densité optique
- dose à partir de laquelle une cytotoxicité est détectée (fibroblastes [3]; human, skin fibroblasts): ≥ 20 µg/mL
